Here are results for 18 compounds from patent publication US10736897B2, “Compounds and methods of use thereof for treatment of cancer” (Araxes Pharma LLC, priority 2017, dated 2020).

For this test, the target named is T1, KRAS G12C 1-169, his-tagged protein, GDP-loaded (Homo sapiens, UniProt P01116, G12C).
T1 construct: KRAS G12C 1-169, his-tagged protein, GDP-loaded; His tag
As to the kind of experiment: Biochemical assay: covalent modification of KRAS G12C measured by mass spectrometry (RapidFire/TOF or Q-Exactive). The format is binding. The following applies: Modification Activity; modification percentage from deconvoluted MS peak intensities; compound concentration and incubation time for Table 2 not stated. As for the experimental part:
Test compounds are prepared as 10 mM stock solutions in DMSO (Fisher cat # BP-231-100). KRAS G12C 1-169, his-tagged protein, GDP-loaded is diluted to 2 μM or 0.5 μM in buffer (20 mM Hepes, 150 mM NaCl, 1 mM MgCl2). Compounds are tested for activity as follows:
Compounds are diluted to 50× final test concentration in DMSO in 96-well storage plates. Compound stock solutions are vortexed before use and observed carefully for any sign of precipitation. Dilutions are as follow: • For 100 μM final compound concentration, compounds are diluted to 5000 μM (5 μL 10 mM compound stock+5 μL DMSO and mixed well by pipetting. • For 30 μM final compound concentration, compounds are diluted to 1500 μM (3 μL 10 mM compound stock+17 μL DMSO) and mixed well by pipetting. • For 10 μM final compound concentration, compounds are diluted to 500 μM (2 μL 10 mM compound stock+38 μL DMSO) and mixed well by pipetting. 49 μL of the stock protein solution is added to each well of a 96-well PCR plate (Fisher cat #1423027). 1 μl of the diluted 50× compounds are added to appropriate wells in the PCR plate using 12-channel pipettor. Reactions are mixed carefully and thoroughly by pipetting up/down with a 200 μL multi-channel pipettor. The plate is sealed well with aluminum plate seal, and stored in drawer at room temperature for 10 minutes, 30 minutes, 2 hours or 24 hours. 5 μL of 2% formic acid (Fisher cat # A117) in de-ionized H2O is then added to each well followed by mixing with a pipette. The plate is then resealed with aluminum seal and stored on dry ice until analyzed as described below.
The above described assays are analyzed by mass spectrometry according to one of the following two procedures:
The MS instrument is set to positive polarity, 2 GHz resolution, and low mass (1700) mode and allowed to equilibrate for 30 minutes. The instrument is then calibrated, switched to acquisition mode and the appropriate method loaded.
After another 30 minute equilibration time, a blank batch (i.e., buffer) is run to ensure equipment is operating properly. The samples are thawed at 37° C. for 10 minutes, briefly centrifuged, and transfer to the bench top. Wells A1 and H12 are spiked with 1 μL 500 μM internal standard peptide, and the plates centrifuged at 2000×g for 5 minutes. The method is then run and masses of each individual well recorded.
The masses (for which integration data is desired) for each well are pasted into the platemap and exported from the analysis. Masses for the internal standards are exported as well. The data at 50 ppm is extracted for the +19 charge state, and identity of well A1 is assigned using the internal standard spike and integrated. Peak data is exported as a TOF list and the above steps are repeated individually, for the +20, 21, 22, 23, 24, and 25 charge states.
The masses and peak intensities of KRAS G12C protein species are measured using a Dionex RSLCnano system (Thermo Scientific) connected to a Q Exactive Plus mass spectrometer (Thermo Scientific).
[…] of sample is each loaded onto a Aeris™ 3.6 μm WIDEPORE C4 200 Å, LC Column 50×2.1 mm column maintained at 40° C. at a flow rate of 600 μL/min with […] (0.1% formic acid in acetonitrile). The liquid chromatography conditions are 20% solvent B for 1 minute, 20% to 60% solvent B for 1.5 minutes, 60% to 90% solvent for 0.5 minute, 90% solvent B for 0.2 minute, 90% to 20% solvent B for 0.2 minute, and then equilibrated for 1.6 minute before the following sample injection. The flow rate is maintained at 600 μL/min throughout the sample analysis.
The mass spectrometer is operated in profile mode at a resolution of 17500, 5 microscans, using 50 msec max injection time and an AGC target of 1×10^6, and a full mass range from 800-1850 m/z is recorded. The HCD trapping gas is optimized for maximum sensitivity for intact proteins. […]
Take `C=CC(=O)N1CCN(c2c(C#N)cnc3c(F)c(-c4c(C)ccc5[nH]nc(C)c45)c(Cl)cc23)CC1CC#N` (stereo not drawn) [Compound 30, 4-(4-acryloyl-3-(cyanomethyl)piperazin-1-yl)-6-chloro-7-(3,5-dimethyl-1H-indazol-4-yl)-8-fluoroquinoline-3-carbonitrile]: the Binding % entry is given as “+++ (+++ indicates binding activity greater than 85%)”.

For `C=CC(=O)N1[C@H](C)CN(c2ncnc3c(F)c(-c4c(C)ccc5cnn(C)c45)c(Cl)cc23)C[C@@H]1C` (atropisomer, axis not shown) [Compound 10, 1-((2S,6R)-4-((R)-6-chloro-7-(1,6-dimethyl-1H-indazol-7-yl)-8-fluoroquinazolin-4-yl)-2,6-dimethylpiperazin-1-yl)prop-2-en-1-one], the Binding % entry is reported as “++ (++ indicates binding activity from 50 to 85%)”.

With `C=CC(=O)N1C[C@H](C)N(c2c(C#N)cnc3c(F)c(-c4c(C)ccc5cnn(C6CC6)c45)c(Cl)cc23)C[C@H]1C` [Compound 20, 4-((2S,5R)-4-acryloyl-2,5-dimethylpiperazin-1-yl)-6-chloro-7-(1-cyclopropyl-6-methyl-1H-indazol-7-yl)-8-fluoroquinoline-3-carbonitrile], the Binding % result was “+ (+ indicates binding activity greater than 0% and up to 50%)”.

Turning to `C=CC(=O)N1CCN(c2c(C#N)c(OCCCN(C)C)nc3c(F)c(-c4c(C)ccc5cnn(C)c45)c(Cl)cc23)CC1` [Compound 27, 4-(4-acryloylpiperazin-1-yl)-6-chloro-7-(1,6-dimethyl-1H-indazol-7-yl)-2-(3-(dimethylamino)pro-poxy)-8-fluoroquinoline-3-carbonitrile], the Binding % result is recorded as “+++ (+++ indicates binding activity greater than 85%)”.

Turning to `C=CC(=O)N1C[C@H](C)N(c2ncnc3c(F)c(-c4c(C)ccc5[nH]nc(N)c45)c(Cl)cc23)C[C@H]1C` [Compound 5, 1-((2R,5S)-4-((R)-7-(3-amino-5-methyl-1H-indazol-4-yl)-6-chloro-8-fluoroquinazolin-4-yl)-2,5-dimethylpiperazin-1-yl)prop-2-en-1-one], the Binding % entry is “++ (++ indicates binding activity from 50 to 85%)”.

On to `C=CC(=O)N1CCN(c2ncnc3c(F)c(-c4c(C)ccc5[nH]nc(C)c45)c(Cl)cc23)CC1CC#N` (stereo not drawn) [Compound 31, 2-(1-acryloyl-4-(6-chloro-7-(3,5-dimethyl-1H-indazol-4-yl)-8-fluoroquinazolin-4-yl)piperazin-2-yl)acetonitrile], for which the Binding % entry is given as “+++ (+++ indicates binding activity greater than 85%)”.

Turning to `C=CC(=O)N1CCN(c2c(C#N)cnc3c(F)c(-c4c(C)ccc5[nH]nc(C6CC6)c45)c(Cl)cc23)CC1` [Compound 13, 4-(4-acryloylpiperazin-1-yl)-6-chloro-7-(3-cyclopropyl-5-methyl-1H-indazol-4-yl)-8-fluoroquinoline-3-carbonitrile], the Binding % entry is “+++ (+++ indicates binding activity greater than 85%)”.

On to `C=CC(=O)N1CCN(c2c(C#N)cnc3c(F)c(-c4c(C)ccc5cnn(C6CC6)c45)c(Cl)cc23)C[C@H]1C` [Compound 26, 4-((R)-4-acryloyl-3-methylpiperazin-1-yl)-6-chloro-7-(1-cyclopropyl-6-methyl-1H-indazol-7-yl)-8-fluoroquinoline-3-carbonitrile], for which the Binding % result is “+++ (+++ indicates binding activity greater than 85%)”.

As for `C=CC(=O)N1CCN(c2cc(C(F)(F)F)nc3c(F)c(-c4c(C)ccc5cnn(C)c45)c(Cl)cc23)CC1` [Compound 23, 1-(4-(6-chlroo-7-(1,6-dimethyl-1H-indazol-7-yl)-8-fluoro-2-(trifluoromethyl)quino-lin-4-yl)piperazin-1-yl)prop-2-en-1-one], the Binding % entry was “+ (+ indicates binding activity greater than 0% and up to 50%)”.

Regarding `C=CC(=O)N1CCN(c2cnnc3cc(-c4c(C)ccc5[nH]nc(C6CC6)c45)c(Cl)cc23)CC1` [Compound 18, 1-(4-(6-chloro-7-(3-cyclopropyl-5-methyl-1H-indazol-4-yl)cinnolin-4-yl)piperazin-1-yl)prop-2-en-1-one], the Binding % result was “+ (+ indicates binding activity greater than 0% and up to 50%)”.

Turning to `C=CC(=O)N1CCN(c2c(C#N)cnc3c(F)c(-c4c(C)ccc5cnn(C)c45)c(Cl)cc23)CC1` [Compound 11, 4-(4-acryloylpiperazin-1-yl)-6-chloro-7-(1,6-dimethyl-1H-indazol-7-yl)-8-fluoroquinoline-3-carbonitrile], the Binding % entry was “+++ (+++ indicates binding activity greater than 85%)”.

Regarding `C=CC(=O)N1CCN(c2c(C#N)cnc3c(F)c(-c4c(C)ccc5[nH]nc(C)c45)c(Cl)cc23)CC1` [Compound 12, 4-(4-acryloylpiperazin-1-yl)-6-chloro-7-(3,5-dimethyl-1H-indazol-4-yl)-8-fluoroquinoline-3-carbonitrile], the Binding % entry is “++ (++ indicates binding activity from 50 to 85%)”.

With `C=CC(=O)N1CCN(c2cnnc3cc(-c4c(C)ccc5[nH]nc(C)c45)c(Cl)cc23)CC1` [Compound 17, 1-(4-(6-chloro-7-(3,5-dimethyl-1H-indazol-4-yl)cinnolin-4-yl)piperazin-1-yl)prop-2-en-1-one], the Binding % result was “+ (+ indicates binding activity greater than 0% and up to 50%)”.

As for `C=CC(=O)N1CCN(c2cnnc3cc(-c4c(C)ccc5cnn(C6CC6)c45)c(Cl)cc23)CC1` [Compound 16, 1-(4-(6-chloro-7-(1-cyclopropyl-6-methyl-1H-indazol-7-yl)cinnolin-4-yl)piperazin-1-yl)prop-2-en-1-one], the Binding % entry is “+ (+ indicates binding activity greater than 0% and up to 50%)”.

On to `C=CC(=O)N1C[C@H](C)N(c2c(C#N)cnc3c(F)c(-c4c(C)ccc5cnn(C)c45)c(Cl)cc23)C[C@H]1C` [Compound 19, 4-((2S,5R)-4-acryloyl-2,5-dimethylpiperazin-1-yl)-6-chloro-7-(1,6-dimethyl-1H-indazol-7-yl)-8-fluoroquinoline-3-carbonitrile], for which the Binding % result was “+ (+ indicates binding activity greater than 0% and up to 50%)”.

Take `C=CC(=O)N1C[C@H](C)N(c2ncnc3c(F)c(-c4c(C)ccc5cnn(C)c45)c(Cl)cc23)C[C@H]1C` (atropisomer, axis not shown) [Compound 8, 1-((2R,5S)-4-((R)-6-chloro-7-(1,6-dimethyl-1H-indazol-7-yl)-8-fluoroquinazolin-4-yl)-2,5-dimethylpiperazin-1-yl)prop-2-en-1-one]: the Binding % result was “+++ (+++ indicates binding activity greater than 85%)”.

Regarding `C=CC(=O)N1CCN(c2cnnc3cc(-c4c(C)ccc5cnn(C)c45)c(Cl)cc23)CC1` [Compound 15, 1-(4-(6-chloro-7-(1,6-dimethyl-1H-indazol-7-yl)cinnolin-4-yl)piperazin-1-yl)prop-2-en-1-one], the Binding % result was “+ (+ indicates binding activity greater than 0% and up to 50%)”.

`C=CC(=O)N1CCN(c2cc(C(F)(F)F)nc3c(F)c(-c4c(C)ccc5[nH]nc(C)c45)c(Cl)cc23)CC1` [Compound 25, 1-(4-(6-chloro-7-(3,5-dimethyl-1H-indazol-4-yl)-8-fluoro-2-(trifluoromethyl)quino-lin-4-yl)piperazin-1-yl)prop-2-en-1-one]: the Binding % entry is “+ (+ indicates binding activity greater than 0% and up to 50%)”.
